Consider twelve compounds from ChEMBL document CHEMBL4396891, “Recent update on anti-dengue drug discovery” (Eur J Med Chem, 2019).

≈ marks a conversion by molar mass, not a printed value.

Assay [1] relates to dengue virus type 2. The assay can be described thus: Antiviral activity against DENV2 infected in BHK-21 cells. The class given is functional, organism-based.
For assay [2], the system named is dengue virus type 1. Description: Antiviral activity against DENV1 infected in African green monkey Vero cells assessed as virus yield reduction after 48 hrs by measuring plaque forming units titration. The class given is functional, organism-based.
For assay [3], the system named is dengue virus type 2. Description: Antiviral activity against DENV2 infected in African green monkey Vero cells assessed as virus yield reduction after 48 hrs by measuring plaque forming units titration. The class given is functional, organism-based.
Assay [4] concerns dengue virus type 3. The assay can be described thus: Antiviral activity against DENV3 infected in African green monkey Vero cells assessed as virus yield reduction after 48 hrs by measuring plaque forming units titration. The class given is functional, organism-based.
Assay [5] relates to dengue virus type 4. Description: Antiviral activity against DENV4 infected in African green monkey Vero cells assessed as virus yield reduction after 48 hrs by measuring plaque forming units titration. The class given is functional, organism-based.
The subject of assay [6] is dengue virus type 1. Description: Antiviral activity against DENV1 after 48 hrs by qRT-PCR analysis. The class given is functional, organism-based. (In general: Quantitative PCR measures a nucleic acid by following its amplification.)
Assay [7] deals with dengue virus type 2. Description: Antiviral activity against DENV2 after 48 hrs by qRT-PCR analysis. The class given is functional, organism-based.
The subject of assay [8] is dengue virus type 3. The assay can be described thus: Antiviral activity against DENV3 after 48 hrs by qRT-PCR analysis. The class given is functional, organism-based.
Assay [9] concerns dengue virus type 4. The assay can be described thus: Antiviral activity against DENV4 after 48 hrs by qRT-PCR analysis. The class given is functional, organism-based.
Assay [10] concerns dengue virus type 2. Description: Antiviral activity against DENV2 infected in African green monkey Vero cells by focus formation unit reduction assay. The class given is functional, organism-based.
In assay [11] the test system is dengue virus type 2. Description: Virucidal activity against DENV2. The class given is functional, organism-based.
In assay [12] the test system is dengue virus type 1. Description: Antiviral activity against DENV1 FGA/89 infected in human Huh7.5 cells after 72 hrs by flow cytometric analysis. The note with it: FGA/89, Huh7.5, 72 h. The class given is functional, organism-based. Background: A flow cytometer gives signals particle by particle.
The subject of assay [13] is dengue virus type 2. Description: Antiviral activity against DENV2 ICC265 infected in human Huh7.5 cells after 72 hrs by flow cytometric analysis. The conditions noted are these: ICC265, Huh7.5, 72 h. The class given is functional, organism-based.
In assay [14] the test system is dengue virus type 3. Description: Antiviral activity against DENV3 5532 infected in human Huh7.5 cells after 72 hrs by flow cytometric analysis. The conditions noted are these: Dengue virus, 5532, Huh7.5, 72 h. The class given is functional, organism-based.
In assay [15] the test system is dengue virus type 4. The assay can be described thus: Antiviral activity against DENV4 TVP360 infected in human Huh7.5 cells after 72 hrs by flow cytometric analysis. The class given is functional, organism-based. The conditions noted are these: TVP360, Huh7.5, 72 h.
Assay [16] relates to dengue virus type 2. The assay can be described thus: Antiviral activity against DENV2 ICC265 infected in human Huh7 cells assessed as reduction in viral titer by plaque assay. The class given is functional, organism-based. The note with it: ICC265, Huh-7.
For assay [17], the system named is dengue virus type 2. Description: Antiviral activity against DENV2 infected in monkey LLC-MK2 cells assessed as reduction in plaque formation after 72 hrs by 96-well based plaque titration method. The class given is functional, organism-based. The note with it: LLC-MK2, 72 h.
Assay [18] deals with dengue virus type 2. The assay can be described thus: Antiviral activity against DENV2 infected in African green monkey Vero cells assessed as reduction in plaque formation after 72 hrs by 96-well based plaque titration method. The class given is functional, organism-based.
For assay [19], the system named is dengue virus type 1. Description: Antiviral activity against DENV1 after 48 hrs by focus reduction assay. The class given is functional, organism-based.
Assay [20] deals with dengue virus type 2. Description: Antiviral activity against DENV2 after 48 hrs by focus reduction assay. The class given is functional, organism-based.
Assay [21] has as its system dengue virus type 3. The assay can be described thus: Antiviral activity against DENV3 after 48 hrs by focus reduction assay. The class given is functional, organism-based.
The test system of assay [22] is dengue virus type 4. Description: Antiviral activity against DENV4 after 48 hrs by focus reduction assay. The class given is functional, organism-based.
Assay [23] deals with dengue virus type 2. Description: Virucidal activity against DENV2 infected in human HepG2 cells. The class given is functional, organism-based.
The subject of assay [24] is dengue virus type 2. Description: Virucidal activity against DENV2 infected in human HeLa cells. The class given is functional, organism-based.
Assay [25] deals with dengue virus type 2. Description: Antiviral activity against DENV2 infected in HEK293 cells assessed as reduction in plaque formation. The class given is functional, organism-based.
Assay [26] deals with Genome polyprotein (dengue virus type 2, UniProt P29990). Description: Inhibition of His-tagged DENV2 NS2B-NS3 serine protease expressed in Escherichia coli BL21 using Boc-Gly-Arg-Arg-7-amino-4-methylcoumarin as substrate measured after 10 mins by fluorometric assay.
Sequence of Genome polyprotein (P29990 1346-1475 limits assumed): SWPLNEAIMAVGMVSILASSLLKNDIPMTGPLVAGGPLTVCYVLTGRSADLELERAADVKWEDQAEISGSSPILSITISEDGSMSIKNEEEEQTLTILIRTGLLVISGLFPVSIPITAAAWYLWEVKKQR
Sequence of Genome polyprotein (P29990 1476-2093 limits assumed): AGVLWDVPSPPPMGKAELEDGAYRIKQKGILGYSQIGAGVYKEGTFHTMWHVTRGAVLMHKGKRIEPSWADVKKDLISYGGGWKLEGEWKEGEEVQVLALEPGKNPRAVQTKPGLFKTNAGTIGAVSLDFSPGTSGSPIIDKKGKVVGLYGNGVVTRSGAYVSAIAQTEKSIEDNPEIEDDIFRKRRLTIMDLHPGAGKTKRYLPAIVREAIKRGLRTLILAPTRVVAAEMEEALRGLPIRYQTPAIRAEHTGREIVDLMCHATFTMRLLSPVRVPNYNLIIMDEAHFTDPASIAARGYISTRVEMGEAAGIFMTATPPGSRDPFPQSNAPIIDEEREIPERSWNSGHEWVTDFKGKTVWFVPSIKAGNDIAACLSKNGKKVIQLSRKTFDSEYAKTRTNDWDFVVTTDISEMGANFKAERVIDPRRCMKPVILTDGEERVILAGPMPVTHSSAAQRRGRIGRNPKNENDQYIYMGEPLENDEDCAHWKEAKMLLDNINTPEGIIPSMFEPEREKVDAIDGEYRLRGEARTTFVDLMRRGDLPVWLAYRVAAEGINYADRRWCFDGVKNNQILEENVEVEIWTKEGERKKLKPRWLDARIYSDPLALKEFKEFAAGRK
In assay [27] the test system is dengue virus type 1. The assay can be described thus: Antiviral activity against DENV1 infected in African green monkey Vero cells assessed as reduction in viral replication after 4 days by qRT-PCR analysis. The class given is functional, organism-based. The conditions noted are these: 96 h.
Assay [28] relates to dengue virus type 2. The assay can be described thus: Antiviral activity against DENV2 infected in African green monkey Vero cells assessed as reduction in viral replication after 4 days by qRT-PCR analysis. The class given is functional, organism-based. The note with it: 96 h.
Assay [29] has as its system dengue virus type 3. Description: Antiviral activity against DENV3 infected in African green monkey Vero cells assessed as reduction in viral replication after 4 days by qRT-PCR analysis. The class given is functional, organism-based. The conditions noted are these: 96 h.
The subject of assay [30] is dengue virus type 4. Description: Antiviral activity against DENV4 infected in African green monkey Vero cells assessed as reduction in viral replication after 4 days by qRT-PCR analysis. The class given is functional, organism-based. The note with it: 96 h.
The test system of assay [31] is dengue virus type 1. Description: Antiviral activity against DENV1 infected in human A549 cells after 3 days by focus reduction assay. The class given is functional, organism-based. The conditions noted are these: A549, 72 h.

For `O=c1c(O)c(-c2ccc(O)c(O)c2)oc2cc(O)cc(O)c12` [QUERCETIN], inhibition in assay [1] was half-maximal at 176 µg/mL (≈ 583 µM) (IC50).

Turning to `C=CCn1c2ccccc2c(=O)c2cc(Cl)ccc21`, the EC50 in assay [2], in [3], in assay [4] and in assay [5] was 12.5 to 27.1 µM throughout.

For `NCC(=O)Nc1ccc(-n2nc(C(F)(F)F)cc2-c2ccc3c(ccc4ccccc43)c2)cc1` [AR-12], the EC50 in assay [6], in assay [7], in [8] and in [9] was 0.6 to 0.8 µM in each case.

With `O=C(O)[C@H]1O[C@@H](Oc2cc3oc(-c4ccccc4)cc(=O)c3c(O)c2O)[C@H](O)[C@@H](O)[C@@H]1O` [BAICALIN], the IC50 – broadly, the concentration at which inhibition is half-maximal – in assay [10] is 13.5 µg/mL (≈ 30.2 µM); in assay [11], 8.74 µg/mL (≈ 19.6 µM).

Consider `O=C1C[C@@H](c2ccc(O)cc2)Oc2cc(O)cc(O)c21` [NARINGENIN], for which the EC50 in assay [12], in assay [13], in [14] and in assay [15] was 35.8 to 178 µM in each case.

Turning to `COc1cc2c(c(OC)c1OC)-c1c(cc(OC)c(OC)c1OC)C[C@H](C)[C@H](C)C2` [SCHISANDRIN A], in assay [16], the EC50 (usually the concentration at which the effect is half-maximal) was 28.1 µM.

Turning to `COc1cc2c(c(O)c1C)C(=O)CC(c1ccccc1)O2` (stereo unspecified) [STROBOPININ-7-METHYLETHER], the EC50 in [17] was determined as 3.72 µM; in assay [18] it was 12.3 µM.

Turning to `C[C@H]1CCC/C=C/[C@@H]2C[C@H](O)C[C@H]2[C@H](O)/C=C/C(=O)O1` [BREFELDIN A], the EC50 in [19], in assay [20], in [21] and in [22] was 54.6 to 65.7 µM each time.

For `C=C1CC[C@@H]2[C@](C)(CO)[C@H](O)CC[C@@]2(C)[C@@H]1C/C=C1/C(=O)OC[C@H]1O` [ANDROGRAPHOLIDE], the EC50 was 21.3 µM in [23] and 22.7 µM in [24].

For `Cc1cnc(NC(=O)c2cc(S(=O)(=O)N(C)C)ccc2N2CCCC2)s1`, the EC50 in assay [25] amounted to 0.85 µM.

In turn, `O=C(Nc1nc2cc(O)c(O)cc2s1)c1ccccc1Sc1ccc(C(F)(F)F)cc1` yielded an IC50 in assay [26] of 3.6 µM. Besides, the EC50 in assay [27] is 0.1 to 3 µM; in assay [28], 0.1 µM; in assay [29], 0.1 µM; in assay [30], 0.1 µM.

With `CC[C@H]1CN2CCc3c([nH]c4ccccc34)[C@H]2C[C@@H]1/C(=C\OC)C(=O)OC` [HIRSUTINE], the EC50 in [31] amounted to 1.9 µM.
